Where two headings read alike, the source gives them in different places.
Target: T1, human GPR119 (Homo sapiens, UniProt Q8TDV5)
T1 sequence (Q8TDV5 1-308 limits assumed): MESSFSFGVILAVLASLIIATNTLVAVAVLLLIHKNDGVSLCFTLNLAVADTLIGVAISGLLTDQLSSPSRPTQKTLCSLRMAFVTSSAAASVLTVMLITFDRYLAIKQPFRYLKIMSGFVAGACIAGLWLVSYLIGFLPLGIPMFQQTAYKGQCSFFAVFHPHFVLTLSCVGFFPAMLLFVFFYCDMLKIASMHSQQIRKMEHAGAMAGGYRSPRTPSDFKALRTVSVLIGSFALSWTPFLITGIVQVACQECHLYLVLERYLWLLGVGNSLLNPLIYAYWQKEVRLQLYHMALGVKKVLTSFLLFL
Test: Measurement of GPR119 signaling (cAMP assay) in cells stably transfected with human GPR119
Type: cell-based

[1] = table column, cAMP stimulation, human GPR119, read-out: GPR119 Human EC50
[2] = stated in the example text, cAMP stimulation, human GPR119, read-out: GPR119 Human EC50

SMILES | EC50 [1] [nM] | further results
CC1(COC(=O)N2CCC([C@H]3C[C@H]3CCOc3ccc(S(C)(=O)=O)cn3)CC2)CCC1 [Example 26] | 0.6 | –
CC(C)c1noc(N2CCC([C@H]3C[C@H]3CCOc3cc(F)c(CC(=O)N(C)C)cc3F)CC2)n1 [Example 75] | – | EC50 (cAMP stimulation, read-out: GPR119 HumC EC50): 0.6 nM
CC(C)c1noc(N2CCC([C@H]3C[C@H]3CCOc3ccc(CC(=O)N4Cc5sccc5C(O)C4)c(F)c3)CC2)n1 (some centres unmarked) [Example 189] | 4.7 | –
CCS(=O)(=O)c1ccc(OCC[C@@H]2C[C@@H]2C2CCN(C(=O)OC3(C)CC3)CC2)nc1 [Example 27] | 0.9 | –
CC1(OC(=O)N2CCC([C@H]3C[C@H]3CCOc3ccc(CC(=O)N4CCC4)cc3)CC2)CC1 [Example 57] | – | EC50 [2]: 5.9 nM
O=C(OCc1ccccc1)N1CCC([C@H]2C[C@H]2CCOc2ccc(-n3cnnn3)cn2)CC1 [Example 33] | 15 | –
CC(C)c1noc(N2CCC([C@H]3C[C@H]3CCOc3ccc(CC(=O)N4CCC4)cc3)CC2)n1 [Example 99, 4-[(1R,2S)-2-{2-[4-(2-azetidin-1-yl-2-oxoethyl)phenoxy]ethyl}cyclopropyl]-1-[3-(1-methylethyl)-1,2,4-oxadiazol-5-yl]piperidine] | – | EC50 [2]: 1.8 nM
Cc1nc(C#N)cc(OCC[C@@H]2C[C@@H]2C2CCN(C(=O)CCC(F)(F)F)CC2)n1 [Example 96] | 43 | –
CS(=O)(=O)c1ccc(OCC[C@@H]2C[C@@H]2C2CCN(C(=O)CC3CCCCC3)CC2)nc1 [Example 85, 2-(2-{(1S,2R)-2-[1-(cyclohexylacetyl)piperidin-4-yl]cyclopropyl}ethoxy)-5-(methylsulfonyl)pyridine] | – | EC50 [2]: 11.8 nM
O=C(CC1CC2C=CC1C2)N1CCC([C@H]2C[C@H]2CCOc2ccc(-n3cnnn3)cc2)CC1 (some centres unmarked) [Example 84] | 3.7 | –
CCCOC(=O)N1CCC([C@H]2C[C@H]2CCOc2ccc(-n3cnnn3)cc2)CC1 [Example 7] | 0.8 | –
CC1(c2nc(N3CCC([C@H]4C[C@H]4CCOc4ccc(S(C)(=O)=O)cn4)CC3)no2)CC1 [Example 240] | 5.2 | –
O=C(NC1CC1)c1c(F)cc(OCC[C@@H]2C[C@@H]2C2CCN(C(=O)CCC(F)(F)F)CC2)cc1F [Example 97] | 3.5 | –
COCc1nc(N2CCC([C@H]3C[C@H]3CCOc3ccc(S(C)(=O)=O)cn3)CC2)no1 [Example 245] | 8.1 | –
COC(=O)N1CCC([C@H]2C[C@H]2CCOc2cc(C#N)nc(C)n2)CC1 [Example 44] | – | EC50 [2]: 34 nM
Cc1nnc(-c2ccc(OCC[C@@H]3C[C@@H]3C3CCN(C(=O)OC(C)(C)C)CC3)cc2F)o1 [Example 50] | – | EC50 (unit inferred, read-out: GPR119 Human EC50): 1.8 nM
CC1(OC(=O)N2CCC([C@H]3C[C@H]3CCOc3ccc(S(C)(=O)=O)cn3)CC2)CCC1 [Example 21] | 0.6 | –
COCc1noc(N2CCC([C@H]3C[C@H]3CCOc3cc(F)c(CC(=O)N4CCC4)c(F)c3)CC2)n1 [Example 205] | 1.2 | –
COCc1noc(N2CCC([C@H]3C[C@H]3CCOc3ccc(CC(=O)NC4CC4)c(F)c3)CC2)n1 [Example 198] | 13 | –
CC(C)CC(=O)N1CCC([C@H]2C[C@H]2CCOc2ccc(S(C)(=O)=O)c(F)c2)CC1 [Example 94] | 19 | –
CS(=O)(=O)c1ccc(OCC[C@@H]2C[C@@H]2C2CCN(C(=O)CC3CCC3)CC2)nc1 [Example 87] | 13 | –
CCOC(=O)N1CCC([C@H]2C[C@H]2CCOc2cc(C#N)nc(C)n2)CC1 [Example 45] | 3.6 | –
Cc1nc(C#N)cc(OCC[C@@H]2C[C@@H]2C2CCN(C(=O)OCC(C)C)CC2)n1 [Example 48] | 1 | –

Second part, led by results:

EC50 [1] [nM] | SMILES | further results
4.3 | CC(C)c1noc(N2CCC([C@H]3C[C@H]3CCOc3ccc(CC(=O)NC4(C(F)(F)F)CC4)c(F)c3)CC2)n1 [Example 153] | –
1.1 | CC(C)c1noc(N2CCC([C@H]3C[C@H]3CCOc3ccc(CC(=O)N(C)C4CCOC4)c(F)c3)CC2)n1 (some centres unmarked) [Example 161] | –
11 | Cc1noc(N2CCC([C@H]3C[C@H]3CCOc3ccc(S(C)(=O)=O)cn3)CC2)n1 [Example 213] | –
1.7 | CC(C)c1noc(N2CCC([C@H]3C[C@H]3CCOc3ccc(CC(=O)N(C)Cc4ccon4)c(F)c3)CC2)n1 [Example 164] | –
5.4 | CC(C)c1noc(N2CCC([C@H]3C[C@H]3CCOc3ccc(CC(=O)NC4CCCC4)c(F)c3)CC2)n1 [Example 156] | –
11.4 | CC(C)c1noc(N2CCC([C@H]3C[C@H]3CCOc3ccc(CC(=O)N4CCC(C)(O)C4)c(F)c3)CC2)n1 (some centres unmarked) [Example 174] | –
5 | Cc1cc(-n2cnnn2)cnc1OCC[C@@H]1C[C@@H]1C1CCN(c2nc(C(C)O)no2)CC1 (some centres unmarked) [Example 229] | –
6 | CC(C)c1noc(N2CCC([C@H]3C[C@H]3CCOc3ccc(CC(=O)N4CC(O)C4)c(F)c3)CC2)n1 [Example 139] | –
7.9 | CC(C)c1noc(N2CCC([C@H]3C[C@H]3CCOc3ccc(CC(=O)N(C)CC4CCC(=O)N4)c(F)c3)CC2)n1 (some centres unmarked) [Example 170] | –
6 | CC(C)c1noc(N2CCC([C@H]3C[C@H]3CCOc3ccc(CC(=O)N4CCOCC4)cc3)CC2)n1 [Example 133] | –
3.6 | CC(C)c1noc(N2CCC([C@H]3C[C@H]3CCOc3ccc(CC(=O)N4CC(C)(O)C4)c(F)c3)CC2)n1 [Example 140] | –
1.7 | CC(C)c1noc(N2CCC([C@H]3C[C@H]3CCOc3ccc(CC(=O)N4CCC(F)(F)CC4)c(F)c3)CC2)n1 [Example 148] | –
2 | CC(C)c1noc(N2CCC([C@H]3C[C@H]3CCOc3ccc(CC(=O)N(C)C4CCS(=O)(=O)C4)c(F)c3)CC2)n1 (some centres unmarked) [Example 162] | –
7.2 | COCc1noc(N2CCC([C@H]3C[C@H]3CCOc3ccc(-n4cncn4)cc3)CC2)n1 [Example 223] | –
8 | CCCc1noc(N2CCC([C@H]3C[C@H]3CCOc3ccc(S(C)(=O)=O)cn3)CC2)n1 [Example 211] | –
2.6 | Cc1cc(OCC[C@@H]2C[C@@H]2C2CCN(c3nc(C(C)C)no3)CC2)ccc1-n1cnnn1 [Example 124] | –
11 | COc1cc(OCC[C@@H]2C[C@@H]2C2CCN(c3nc(C(C)C)no3)CC2)ccc1-n1cnnn1 [Example 125] | –
8.1 | CC(C)c1noc(N2CCC([C@H]3C[C@H]3CCOc3ccc(CC(=O)N(C)C4(C)CCCC4)c(F)c3)CC2)n1 [Example 165] | –
10 | CC(C)c1noc(N2CCC([C@H]3C[C@H]3CCOc3cc(F)c(C(=O)NC(C)(C)CO)c(F)c3)CC2)n1 [Example 122] | –
3.2 | CC(C)c1noc(N2CCC([C@H]3C[C@H]3CCOc3ccc(CC(=O)NC4CCC4)c(F)c3)CC2)n1 [Example 151] | –
3.9 | CC(C)c1noc(N2CCC([C@H]3C[C@H]3CCOc3ccc(CC(=O)NCC(F)(F)F)c(F)c3)CC2)n1 [Example 157] | –
1.4 | Cc1nc2c(o1)CCN(C(=O)Cc1ccc(OCC[C@@H]3C[C@@H]3C3CCN(c4nc(C(C)C)no4)CC3)cc1F)C2 [Example 196] | –
2.3 | Cc1nc(CN(C)C(=O)Cc2ccc(OCC[C@@H]3C[C@@H]3C3CCN(c4nc(C(C)C)no4)CC3)cc2F)cs1 [Example 163] | –
1.5 | CC(C)c1noc(N2CCC([C@H]3C[C@H]3CCOc3ccc(CC(=O)N4CC(F)C4)cc3)CC2)n1 [Example 129] | –
